According to the OligoGym collection:
“And” between values parts separate entries of the source, which are not always exact repeats. Identical values can stand only once. After the bases stand the sugars from the 5' end (letter, count) and the backbone: PS all phosphorothioate, else s phosphorothioate and o phosphodiester by linkage. Methylation of C is not given here. e = 2'-O-(2-methoxyethyl) (MOE); k = constrained ethyl (cEt); d = 2'-deoxy (DNA)

Target: SOD1
Details: ASO

ATGTTTATCAGGATACA (sugars e2 k2 d8 k2 e3, linkages s1 o2 s9 o2 s2)
target mRNA inhibition (A431, 0.12 µM): 2%
target mRNA inhibition (A431, 0.6 µM): 4%
target mRNA inhibition (A431, 3 µM): 12%
target mRNA inhibition (A431, 15 µM): 52%
target mRNA inhibition (HepG2, 0.222 µM): 53%
target mRNA inhibition (HepG2, 0.667 µM): 73%
target mRNA inhibition (HepG2, 2 µM): 89%
target mRNA inhibition (HepG2, 6 µM): 90%

ATGTTTATCAGGATACA (sugars e2 k2 d9 k2 e2, linkages s1 o3 s9 o1 s2)
target mRNA inhibition (A431, 0.12 µM): 1%
target mRNA inhibition (A431, 0.6 µM): 4%
target mRNA inhibition (A431, 3 µM): 21%
target mRNA inhibition (A431, 15 µM): 29%
target mRNA inhibition (HepG2, 0.222 µM): 47%
target mRNA inhibition (HepG2, 0.667 µM): 71%
target mRNA inhibition (HepG2, 2 µM): 92%
target mRNA inhibition (HepG2, 6 µM): 82%

ATTACACCACAAGCCAA (sugars e2 k2 d8 k2 e3, PS)
target mRNA inhibition (HepG2, 4 µM): 46%

ATTACACCACAAGCCAA (sugars e2 k2 d9 k2 e2, PS)
target mRNA inhibition (HepG2, 4 µM): 63%

ATTACAGTGTTTAATGT (sugars e3 k2 d7 k2 e3, PS)
target mRNA inhibition (HepG2, 3 µM): 24%

ATTCACAGGCTTGAATG (sugars e2 k2 d8 k2 e3, PS)
target mRNA inhibition (HepG2, 5 µM): 19%

ATTCTGACAAGTTTAAT (sugars e3 k2 d7 k2 e3, PS)
target mRNA inhibition (HepG2, 3 µM): 9%

ATTGAAACAGACATTTT (sugars e3 k2 d7 k2 e3, PS)
target mRNA inhibition (HepG2, 3 µM): 22%

ATTGGGCGATCCCAATT (sugars e2 k2 d8 k2 e3, PS)
target mRNA inhibition (HepG2, 4 µM): 2%

ATTGGGCGATCCCAATT (sugars e2 k2 d9 k2 e2, PS)
target mRNA inhibition (HepG2, 4 µM): 23%

ATTGGGCGATCCCAATT (sugars e3 k2 d7 k2 e3, PS)
target mRNA inhibition (HepG2, 3 µM): 19%

ATTTCCACCTTTGCCCA (sugars e3 k2 d7 k2 e3, PS)
target mRNA inhibition (HepG2, 3 µM): 63%

ATTTCCACCTTTGCCCAAGT (sugars e5 d10 e5, PS)
target mRNA inhibition (HepG2, 4 µM): 56%
target mRNA inhibition (HepG2, 12 µM): 84%

ATTTCTACAGCTAGCAG (sugars e2 k2 d8 k2 e3, PS)
target mRNA inhibition (HepG2, 4 µM): 66%

CAAAATACAGGTCATTG (sugars e3 k2 d7 k2 e3, PS)
target mRNA inhibition (HepG2, 3 µM): 23%

CAAACCAGCACCCCGTCTCC (sugars e5 d10 e5, PS)
target mRNA inhibition (HepG2, 4 µM): 13%

CAACATGCCTCTCTTCA (sugars e3 k2 d7 k2 e3, PS)
target mRNA inhibition (HepG2, 3 µM): 3%

CAAGGGAATGTTTATTG (sugars e2 k2 d8 k2 e3, PS)
target mRNA inhibition (HepG2, 4 µM): 43%

CAAGGGAATGTTTATTG (sugars e2 k2 d9 k2 e2, PS)
target mRNA inhibition (HepG2, 4 µM): 38%

CAAGTCATCTGCTTTTT (sugars e3 k2 d7 k2 e3, PS)
target mRNA inhibition (HepG2, 3 µM): 42%

CACATCGGCCACACCATCTT (sugars e5 d10 e5, PS)
target mRNA inhibition (HepG2, 5 µM): 27% and 13%

CACCCCGTCTCCGCGACTAC (sugars e5 d10 e5, PS)
target mRNA inhibition (HepG2, 4 µM): 13%

CACTACAGGTACTTTAAAGC (sugars e5 d10 e5, PS)
target mRNA inhibition (HepG2, 5 µM): 18%

CACTGGTCCATTACTTT (sugars e3 k2 d7 k2 e3, PS)
target mRNA inhibition (HepG2, 3 µM): 12%

CAGACTACATCCAAGGG (sugars e2 k2 d8 k2 e3, PS)
target mRNA inhibition (HepG2, 0.1875 µM): 25%
target mRNA inhibition (HepG2, 0.75 µM): 60%
target mRNA inhibition (HepG2, 3 µM): 84%
target mRNA inhibition (HepG2, 4 µM): 81%
target mRNA inhibition (HepG2, 12 µM): 91%

CAGACTACATCCAAGGG (sugars e2 k2 d9 k2 e2, PS)
target mRNA inhibition (HepG2, 0.1875 µM): 28%
target mRNA inhibition (HepG2, 0.75 µM): 55%
target mRNA inhibition (HepG2, 3 µM): 74%
target mRNA inhibition (HepG2, 4 µM): 78%
target mRNA inhibition (HepG2, 12 µM): 91%

CAGACTACATCCAAGGG (sugars e3 k2 d7 k2 e3, PS)
target mRNA inhibition (HepG2, 3 µM): 53%

CAGGATAACAGATGAGT (sugars e2 k2 d9 k2 e2, PS)
target mRNA inhibition (HepG2, 0.1875 µM): 56%
target mRNA inhibition (HepG2, 0.75 µM): 89%
target mRNA inhibition (HepG2, 3 µM): 93%
target mRNA inhibition (HepG2, 4 µM): 96%
target mRNA inhibition (HepG2, 12 µM): 96%

CAGGATACATTTCTACAG (sugars e5 d8 e5, linkages s1 o3 s9 o2 s2)
target mRNA inhibition (A431, 0.12 µM): 2%
target mRNA inhibition (A431, 0.6 µM): 31%
target mRNA inhibition (A431, 3 µM): 9%
target mRNA inhibition (A431, 15 µM): 18%
target mRNA inhibition (HepG2, 0.222 µM): 14%
target mRNA inhibition (HepG2, 0.667 µM): 31%
target mRNA inhibition (HepG2, 2 µM): 54%
target mRNA inhibition (HepG2, 6 µM): 84%

CAGGATACATTTCTACAGCT (sugars e5 d10 e5, linkages s1 o3 s11 o3 s1)
target mRNA inhibition (A431, 0.12 µM): 13%
target mRNA inhibition (A431, 0.6 µM): 24%
target mRNA inhibition (A431, 3 µM): 41%
target mRNA inhibition (A431, 15 µM): 62%
target mRNA inhibition (HepG2, 0.222 µM): 38%
target mRNA inhibition (HepG2, 0.667 µM): 70%
target mRNA inhibition (HepG2, 2 µM): 95%
target mRNA inhibition (HepG2, 6 µM): 88%

CAGGATACATTTCTACAGCT (sugars e5 d10 e5, linkages s1 o4 s10 o2 s2)
target mRNA inhibition (A431, 0.062 µM): 18%
target mRNA inhibition (A431, 0.185 µM): 28%
target mRNA inhibition (A431, 0.556 µM): 45%
target mRNA inhibition (A431, 1.667 µM): 70%
target mRNA inhibition (A431, 5 µM): 69%
target mRNA inhibition (A431, 15 µM): 81%
target mRNA inhibition (SH-SY5Y, 0.062 µM): 0%
target mRNA inhibition (SH-SY5Y, 0.185 µM): 17%
target mRNA inhibition (SH-SY5Y, 0.556 µM): 49%
target mRNA inhibition (SH-SY5Y, 1.667 µM): 62%
target mRNA inhibition (SH-SY5Y, 5 µM): 83%
target mRNA inhibition (SH-SY5Y, 15 µM): 91%
